{"source": "paper PMC9786284", "about": "“Synthesis and Antiproliferative Effect of Halogenated Coumarin Derivatives” (Molecules, 2022)", "type_in_all_cases": "cell-based", "key": {"Nthy-ori-3-1 cells": {"system": "Nthy-ori-3-1 cells", "assay": "Intracellular ROS production (H2-DCF-DA probe)", "conditions": "only with 100 μM", "experimental": "(§1) It has been reported that coumarins and their derivatives are able to regulate the reactive oxygen species (ROS). For example, esculetin induces cytotoxicity in pancreatic cancer cells decreasing ROS and protein levels of the ROS-dependent transcription factor NF-κB [49]. On the other end, coumarins induce the generation and accumulation of ROS in cancer cells causing cell cycle arrest and apoptotic cell death. […] Conversely, 2h produces an antiproliferative response in TPC-1 cells by scavenging ROS. In an attempt of a better understanding of the results, such compounds were explored from an electrochemical point of view by means of cyclic voltammetry in anhydrous acetonitrile.\n(§2) PTC-derived and control cells were seeded in 96-well plates (7.5 × 10^3/mL) to detect intracellular ROS production and grown for 24 h. Cells were then washed with PBS 1X solution and incubated for 30 min with 2′,7′-dichlorofluorescein diacetate probe (H2-DCF-DA) (Merck, Milan, Italy) (10 μM), as previously described. […] After 1 h of incubation, excess H2-DCF-DA was removed and replaced with PBS, and then ROS levels were measured by using a microplate reader (Infinite 200, Tecan, Salzburg, Austria) at a controlled temperature of 37 °C. The measurement was performed using an excitation of 490 nm and an emission of 520 nm. ROS production was evaluated for 2 h and monitored, taking readings at intervals of 5 min."}, "TPC-1 cells [1]": {"system": "TPC-1 cells", "assay": "Intracellular ROS production (H2-DCF-DA probe)", "conditions": "20 and 100 μM, 30 to 120 min", "experimental": "as §1, §2"}, "TPC-1 cells [2]": {"system": "TPC-1 cells", "assay": "Intracellular reduced and oxidized glutathione (GSH/GSSG) by HPLC-ECD", "conditions": "20 µM, 24 h, untreated cells 100%", "experimental": "(§3) Redox perturbation was further investigated by measuring intracellular antioxidant species. In Nthy-ori3-1 cells, coumarin 2k at 20 µM improved the GSH concentration measured as GSH/GSSG ratio (p < 0.001), leading to values close to 200% with respect to the untreated cells (100%), while coumarin 2h increased the level of GSH but with less evidence (about 40% more than the untreated control cells, p < 0.01) (Figure 4). […] The Keap1/Nrf2/ARE system is a mechanism that plays a key role in the pathogenesis and progression of several diseases. It is a central defensive mechanism against oxidative stress.\n(§4) Reduced glutathione (GSH) and oxidized glutathione (GSSG) levels were determined with high-performance liquid chromatography coupled with an electrochemical detector (HPLC-ECD), as described in previous studies. In detail, Nthy-ori3-1 and TPC-1 cells were seeded in 6-well plates at the density of 1 × 10^5 cells/2 mL and incubated for 24 h. Cells were then treated with 2k and 2h (20 µM) for 24 h. After the incubation, cells were scraped and extracted with 150 µL of 10% meta-phosphoric acid and 150 µL of 0.05% trifluoroacetic acid (TFA) (Merck, Milan, Italy) solution. After centrifugation, 10 µL of supernatant was collected for protein determination, and the remaining part was injected into the HPLC system. GSH and GSSG amounts were measured using an HPLC (Agilent 1260 infinity, Agilent Technologies, Palo Alto, CA, USA) equipped with an electrochemical detector (DECADE II Antec, Leyden, The Netherlands) and an Agilent interface 35900E. A calibration curve was created using standards of GSH and GSSG (Merck, Milan, Italy), injected with different concentrations. Data were collected and expressed as a percentage of the control cells (100%) of the ratio between GSH and GSSG normalized using µg of total proteins."}, "Nthy-ori3-1 cells": {"system": "Nthy-ori3-1 cells", "assay": "Intracellular reduced and oxidized glutathione (GSH/GSSG) by HPLC-ECD", "conditions": "20 µM, 24 h", "experimental": "as §3, §4"}, "TPC-1 cells [3]": {"system": "TPC-1 cells", "assay": "Cell cycle analysis by flow cytometry (PI/RNase staining)", "conditions": "20 µM, 24 h, compared with untreated cells", "experimental": "Among the potential mechanisms involved in the treatment of cancer, there is the arrest of the cell cycle. To detect whether the cytotoxicity of coumarins 2k and 2h resulted from cell cycle progression, the effects on the cell cycle of TPC-1 cells were analyzed by flow cytometry after labeling with PI (propidium iodide)/RNase Staining Buffer detection kit. […] According to apoptosis results, the cell cycle arrest could be responsible for the cytotoxicity in cancer cells. In the present study, it was observed that coumarin 2k determined cell arrest of TPC-1 cells in the G2/M phase, indicating the apoptotic mode of cell death and inhibition of DNA synthesis (S phase reduction). This finding is consistent with previous investigations reporting that coumarins able to induce cytotoxicity by inducing G2/M and S phases arrest in different cancer cell lines.\nThe cells were seeded (5 × 10^4 cells/mL) in six-well plates (Corning, Tewksbury, MA, USA). After 24 h, they were treated with coumarins (20 µM) for 24 h. Cell cycle analysis was performed by using the Invitrogen™ FxCycle™ PI/RNase Staining Solution (according to the manufacturer’s instructions, Thermo Fisher Scientific, Waltham, MA, USA), and then the DNA content was evaluated by flow cytometry (MoFloAstrios EQ, Beckman Coulter, Brea, CA, USA). The analysis of cell cycle phase distribution was accomplished via Kaluza Flow Cytometry Analysis Software (Software Version 1.2, Beckman Coulter) by setting 3 gates in each single parameter histogram: G0/G1, S, and G2/M."}}}
{"smiles": "N#Cc1cc2cc(Br)cc(Br)c2oc1=O", "note": "[2h, 6,8-dibromo-2-oxo-2H-chromene-3-carbonitrile]", "values": [{"measurement": "effect on ROS", "setting": "Nthy-ori-3-1 cells", "value": "antioxidant"}, {"measurement": "ROS generation", "setting": "TPC-1 cells [1]", "value": "decreased ROS generation"}, {"measurement": "GSH/GSSG ratio, percentage of untreated cells", "setting": "TPC-1 cells [2]", "value": "up to 500%"}, {"measurement": "increase in level of GSH over untreated control cells", "setting": "Nthy-ori3-1 cells; more than the untreated control", "value": "about 40%"}, {"measurement": "effect on G2/M phase cell population", "setting": "TPC-1 cells [3]", "value": "same trend"}]}
{"smiles": "N#Cc1cc2cc(I)cc(I)c2oc1=O", "note": "[2k, 6,8-diiodo-2-oxo-2H-chromene-3-carbonitrile]", "values": [{"measurement": "effect on ROS", "setting": "Nthy-ori-3-1 cells", "value": "pro-oxidant"}, {"measurement": "ROS generation", "setting": "TPC-1 cells [1]", "value": "significant increase in ROS generation"}, {"measurement": "GSH/GSSG ratio, percentage of untreated cells", "setting": "TPC-1 cells [2]", "value": "about 200%"}, {"measurement": "GSH/GSSG ratio, percentage of untreated cells", "setting": "Nthy-ori3-1 cells; untreated cells 100%", "value": "about 200%"}, {"measurement": "effect on G2/M phase cell population", "setting": "TPC-1 cells [3]", "value": "increase in TPC-1 cells in the G2/M phase"}, {"measurement": "effect on S phase cell population", "setting": "TPC-1 cells [3]", "value": "decreases the cell population in the S phase"}]}
